In experiment [1] the target is T1, hGIPR (Homo sapiens, UniProt P48546).
T1 construct: expressed in transfected cells; host or cells: CHO cells carrying a CRE-luciferase reporter gene
T1 sequence (P48546 22-466): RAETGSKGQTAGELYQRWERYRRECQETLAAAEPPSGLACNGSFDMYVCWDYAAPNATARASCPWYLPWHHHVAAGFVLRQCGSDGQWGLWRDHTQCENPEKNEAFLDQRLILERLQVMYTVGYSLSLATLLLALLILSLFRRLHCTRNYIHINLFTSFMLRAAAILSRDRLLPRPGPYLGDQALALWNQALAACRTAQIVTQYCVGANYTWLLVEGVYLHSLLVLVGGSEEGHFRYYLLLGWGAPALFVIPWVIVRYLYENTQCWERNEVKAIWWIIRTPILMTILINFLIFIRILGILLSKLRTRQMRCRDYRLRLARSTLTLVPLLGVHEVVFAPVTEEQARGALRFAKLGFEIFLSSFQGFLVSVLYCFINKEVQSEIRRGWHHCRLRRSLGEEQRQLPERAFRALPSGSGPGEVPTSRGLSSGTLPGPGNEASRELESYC
Put plainly: hGIPR CreLuc reporter gene assay in 0.5% and 100% plasma. It is filed as cell-based. The settings on record: CreLuc reporter gene assay. The text has this: (§1) Example 1: hGLPR/hGIPR/hNPY2R CreLuc Assay in 0.5% and 100% Plasma
(§2) CHO and HEK-293 recombinant cell lines express a luciferase reporter gene under control of the cAMP responsive element (CRE). As a second recombinant protein the GLP-1 and NPY2 receptors were expressed in the reporter gene HEK cells, and the GIP receptor was expressed in the reporter gene CHO cells, respectively. Stimulation of these recombinant cells with an agonist leads to an increase of intracellular cAMP levels. In the presence of cAMP, the transcription factor CRE binding protein (CREB) binds to the CRE and to the CREB binding protein (CBP), which leads to transcription of the luciferase reporter gene. Peptides upon serial-dilution in 100% DMSO were transferred into 384-well assay plates with 5 μl pre-dispensed assay buffer (1×HBSS, 20 mM HEPES, pH7.4 supplemented with 0.5% human plasma) using acoustic dispensing on a Labcyte ECHO. Cryo-preserved transgenic reporter gene cells were thawed in assay buffer. 20 μl (10.000 cells/well) were added to the plate with the peptides and incubated for 4 hours at 37° C. in a humidified incubator. Following incubation, assay plates are equilibrated to room temperature, followed by addition of 25 μl of Bright-GIo™ Luciferase reagent, incubation at room temperature for 10 minutes and analysis of luminescence (Envision Reader). Concentration response evaluation of compounds was performed with 8 concentrations of peptides (covering four decades). EC50 values were calculated by non-linear regression using sigmoid concentration-response with variable slope. The same assays were run in the presence of 100% plasma with no additional buffer constituents.
(In general: A reporter such as luciferase makes a cellular process visible.)

In experiment [2] the target is T2, hGLP1R (Homo sapiens, UniProt P43220).
T2 construct: expressed in transfected cells; host or cells: HEK-293 cells carrying a CRE-luciferase reporter gene
T2 sequence (P43220 24-463): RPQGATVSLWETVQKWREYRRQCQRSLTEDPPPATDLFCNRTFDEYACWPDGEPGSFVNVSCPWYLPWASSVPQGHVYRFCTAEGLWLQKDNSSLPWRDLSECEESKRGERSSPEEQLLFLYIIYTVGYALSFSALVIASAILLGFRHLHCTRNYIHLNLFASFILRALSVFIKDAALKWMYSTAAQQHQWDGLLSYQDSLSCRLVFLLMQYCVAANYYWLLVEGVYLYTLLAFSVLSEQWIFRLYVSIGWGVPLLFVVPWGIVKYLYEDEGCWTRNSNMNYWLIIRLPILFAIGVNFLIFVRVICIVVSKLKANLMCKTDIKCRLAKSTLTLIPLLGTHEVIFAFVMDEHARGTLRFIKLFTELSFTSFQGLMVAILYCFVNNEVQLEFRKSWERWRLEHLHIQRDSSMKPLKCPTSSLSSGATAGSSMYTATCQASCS
Put plainly: hGLP1R CreLuc reporter gene assay in 0.5% and 100% plasma. It is filed as cell-based. The settings on record: CreLuc reporter gene assay.
Text: as §1, §2

[3] abbreviates: 0.5% human plasma, read-out: hGIPR 0.5% hP.
Where [4] appears, read: 100% human plasma, read-out: hGIPR 100% hP.
Where [5] appears, read: 0.5% human plasma, read-out: hGLP1R 0.5% hP.
Setting [6] is: 100% human plasma, read-out: hGLP1R 100% hP.

Drawing on patent US20240247080A1, “GLP1/GIP/NPY2 RECEPTOR TRIPLE AGONISTS” (Boehringer Ingelheim International GmbH, priority 2022, published 2024), this text covers EC50 for 14 substances.

Read-outs that look alike come from different tables or passages of the source. Starred links: 1 amine or outer side, 2 acyl side, 3 side chain; linkers in the order of their positions; H or OH if unused. Positions of bridges follow the written chain, without caps; N, C: chain ends. Non-standard residues stand in square brackets, D forms with d. Groups on a side chain read outwards from the residue. Chains are numbered I, II in the order given. *: point of attachment. C20 diacid = O=C(O)CCCCCCCCCCCCCCCCCCC(=O)*; C18 diacid = O=C(O)CCCCCCCCCCCCCCCCC(=O)*; γGlu = O=C(O)[C@H](CCC(=O)[*:2])N[*:1]; εLys = N[C@@H](CCCCN[*:1])C(=O)[*:2]; NMeR = CN[C@@H](CCCNC(=N)N)C(=O)O; Tle = CC(C)(C)[C@H](N)C(=O)O; AEEA = NCCOCCOCC(=O)O; Aib = CC(C)(N)C(=O)O

On to “H-Y[Aib]EGTFTSDYSI[Aib]LEKQAQ[Aib]AFVEWLIK([εLys-γGlu-γGlu-γGlu-γGlu-γGlu-γGlu-C20 diacid])GGPSSGASLRHYYNW[Tle]TRQRY-NH2 [Compound 137, Y-Aib-E-G-T-F-T-S-D-Y-S-I-Aib-L-E-K-Q-A-Q-Aib-A-F-V-E-W-L-I-K(1,3)-G-G-P-S-S-G-A-S-L-R-H-Y-Y-N-W-Tle-T-R-Q-R-Y-NH2.C20DA-gGlu-gGlu-gGlu-gGlu-gGlu-gGlu-eLys(1,2)]”, for which the EC50 in experiment [1] (setting [3]) turned out to be 0.28 nM; in experiment [1] (setting [4]), 1.5 nM; in experiment [2] (setting [5]), 0.12 nM.
In the same order, the values of “H-Y[Aib]EGTFTSDYSI[Aib]LEKQAQ[Aib]AFVQWLIK([AEEA-AEEA-γGlu-γGlu-γGlu-γGlu-γGlu-C20 diacid])GGPSEGASLRHYYNWLTRQRY-NH2 [Compound 228, Y-Aib-E-G-T-F-T-S-D-Y-S-I-Aib-L-E-K-Q-A-Q-Aib-A-F-V-Q-W-L-I-K(1,3)-GGPSEGASLRHYYNWLTRQRY-NH2.C20DA-gGlu-gGlu-gGlu-gGlu-gGlu-OEG-OEG(1,2)]” are 0.23 nM, 1.52 nM and 0.12 nM.
Turning to “H-Y[Aib]EGTFTSDYSI[Aib]LEKQAQ[Aib]AFVEWLIK([εLys-γGlu-γGlu-γGlu-γGlu-γGlu-γGlu-C20 diacid])GGPSSGASLRHYYN[Aib]LTRQRY-NH2 [Compound 218, Y-Aib-E-G-T-F-T-S-D-Y-S-I-Aib-L-E-K-Q-A-Q-Aib-A-F-V-E-W-L-I-K(1,3)-G-G-P-S-S-G-A-S-L-R-H-Y-Y-N-Aib-L-T-R-Q-R-Y-NH2.C20DA-gGlu-gGlu-gGlu-gGlu-gGlu-gGlu-eLys(1,2)]”, the EC50 amounted to 0.36 nM in experiment [1] (setting [3]), 2.35 nM in experiment [1] (setting [4]) and 0.16 nM in experiment [2] (setting [5]).
With “H-Y[Aib]EGTFTSDYSI[Aib]LEKQAQ[Aib]AFVEWLIK([εLys-γGlu-γGlu-γGlu-γGlu-γGlu-γGlu-C20 diacid])GGPSSGAS[Aib]RHY[Aib]NR[Aib]TRQRY-NH2 [Compound 4, Y-Aib-E-G-T-F-T-S-D-Y-S-I-Aib-L-E-K-Q-A-Q-Aib-A-F-V-E-W-L-I-K(1,3)-G-G-P-S-S-G-A-S-Aib-R-H-Y-Aib-N-R-Aib-T-R-Q-R-Y-NH2.C20DA-gGlu-gGlu-gGlu-gGlu-gGlu-gGlu-eLys(1,2)]”, the EC50 in experiment [1] (setting [3]) is 0.25 nM; in experiment [1] (setting [4]), 1.66 nM; in experiment [2] (setting [5]) it was 0.09 nM.
Take “H-Y[Aib]EGTFTSDYSI[Aib]LEKQAQ[Aib]AFVQWLIK([εLys-γGlu-γGlu-γGlu-γGlu-γGlu-C20 diacid])GGPESGASLRHYYNWLTRQRY-NH2 [Compound 61, Y-Aib-E-G-T-F-T-S-D-Y-S-I-Aib-L-E-K-Q-A-Q-Aib-A-F-V-Q-W-L-I-K(1,3)-GGPESGASLRHYYNWLTRQRY-NH2.C20DA-gGlu-gGlu-gGlu-gGlu-gGlu-eLys(1,2)]”: the EC50 in experiment [1] (setting [3]) was 0.36 nM; in experiment [1] (setting [4]) it was 0.56 nM; in experiment [2] (setting [5]) it was 0.11 nM; in experiment [2] (setting [6]), 3.95 nM.
In the same order, the values of “H-Y[Aib]EGTFTSDYSI[Aib]LEEQAQ[Aib]AFVQWLIK([εLys-γGlu-γGlu-γGlu-γGlu-γGlu-C20 diacid])GGPSSGASLRHYYNWLTRQRY-NH2 [Compound 34, Y-Aib-E-G-T-F-T-S-D-Y-S-I-Aib-L-E-E-Q-A-Q-Aib-A-F-V-Q-W-L-I-K(1,3)-GGPSSGASLRHYYNWLTRQRY-NH2.C20DA-gGlu-gGlu-gGlu-gGlu-gGlu-eLys(1,2)]” are 0.13 nM, 1.61 nM, 0.09 nM and 1.39 nM.
In the case of “H-Y[Aib]EGTFTSDYSI[Aib]LEKQAQ[Aib]AFVEWLIK([εLys-γGlu-γGlu-γGlu-γGlu-γGlu-γGlu-C20 diacid])GGPRSGASLRHYYNWLTRQRY-NH2 [Compound 168, Y-Aib-E-G-T-F-T-S-D-Y-S-I-Aib-L-E-K-Q-A-Q-Aib-A-F-V-E-W-L-I-K(1,3)-GGPRSGASLRHYYNWLTRQRY-NH2.C20DA-gGlu-gGlu-gGlu-gGlu-gGlu-gGlu-eLys(1,2)]”, the EC50 in experiment [1] (setting [3]) worked out at 0.2 nM; in experiment [1] (setting [4]) it was 1.5 nM; in experiment [2] (setting [5]), 0.11 nM.
“I: H-Y[Aib]EGTFTSDYSI[Aib]LEKQAQ[Aib]AFVEWLIKGGPSEGASLRHYYNWLTRQRY-NH2 / II: {C18 diacid}-EEEEEE (amide I:28-II:C) [Compound 302, Y-Aib-E-G-T-F-T-S-D-Y-S-I-Aib-L-E-K-Q-A-Q-Aib-A-F-V-E-W-L-I-K(1,3)-GGPSEGASLRHYYNWLTRQRY-NH2.C18DA-E-E-E-E-E-E(1,2)]”: the EC50 in experiment [1] (setting [3]) was 0.33 nM; in experiment [2] (setting [5]) it was 0.15 nM.
In the same order, the values of “H-Y[Aib]EGTFTSDYSI[Aib]LEKQAE[Aib]AFVEWLIK([γGlu-γGlu-γGlu-γGlu-C20 diacid])GGPSEGASLRHYYNWLTRQRY-NH2 [Compound 280, Y-Aib-E-G-T-F-T-S-D-Y-S-I-Aib-L-E-K-Q-A-E-Aib-A-F-V-E-W-L-I-K(1,3)-GGPSEGASLRHYYNWLTRQRY-NH2.C20DA-gGlu-gGlu-gGlu-gGlu(1,2)]” are 0.38 nM and 0.44 nM.
On to “H-Y[Aib]EGTFTSDYSI[Aib]LEKQAQ[Aib]AFVEWLIK([εLys-γGlu-γGlu-γGlu-γGlu-γGlu-γGlu-C20 diacid])GGPSSGAS[Aib]RHYYNWLTRQRY-NH2 [Compound 118, Y-Aib-E-G-T-F-T-S-D-Y-S-I-Aib-L-E-K-Q-A-Q-Aib-A-F-V-E-W-L-I-K(1,3)-G-G-P-S-S-G-A-S-Aib-R-H-Y-Y-N-W-L-T-R-Q-R-Y-NH2.C20DA-gGlu-gGlu-gGlu-gGlu-gGlu-gGlu-eLys(1,2)]”, for which the EC50 in experiment [1] (setting [3]) is 0.06 nM; in experiment [1] (setting [4]), 0.55 nM; in experiment [2] (setting [5]), 0.05 nM.
For the substance “H-Y[Aib]EGTFTSDYSI[Aib]LEKQAQ[Aib]AFVEWLIK([εLys-γGlu-γGlu-γGlu-γGlu-γGlu-γGlu-C20 diacid])GGPSSAVSLRHYYNWLTRQRY-NH2 [Compound 33, Y-Aib-E-G-T-F-T-S-D-Y-S-I-Aib-L-E-K-Q-A-Q-Aib-A-F-V-E-W-L-I-K(1,3)-GGPSSAVSLRHYYNWLTRQRY-NH2.C20DA-gGlu-gGlu-gGlu-gGlu-gGlu-gGlu-eLys(1,2)]”, the EC50 worked out at 0.25 nM in experiment [1] (setting [3]), 0.14 nM in experiment [2] (setting [5]) and 3.17 nM in experiment [2] (setting [6]).
For the substance “H-Y[Aib]EGTFTSDYSI[Aib]LEKQAQ[Aib]AFVEWLIK([γGlu-γGlu-γGlu-γGlu-γGlu-γGlu-C20 diacid])GGPSSGASLRHYYNWLTRQRY-NH2 [Compound 235, Y-Aib-E-G-T-F-T-S-D-Y-S-I-Aib-L-E-K-Q-A-Q-Aib-A-F-V-E-W-L-I-K(1,3)-GGPSSGASLRHYYNWLTRQRY-NH2.C20DA-gGlu-gGlu-gGlu-gGlu-gGlu-gGlu(1,2)]”, the EC50 in experiment [1] (setting [3]) amounted to 0.34 nM; in experiment [1] (setting [4]), 2.81 nM; in experiment [2] (setting [5]), 0.12 nM.
Turning to “I: H-Y[Aib]EGTFTSDYSI[Aib]LEKQAQ[Aib]AFVQWLIKGGPEEGASLRHYYNWLTRQRY-NH2 / II: {C18 diacid}-EEEEEE[εLys] (amide I:28-II:C) [Compound 196, Y-Aib-E-G-T-F-T-S-D-Y-S-I-Aib-L-E-K-Q-A-Q-Aib-A-F-V-Q-W-L-I-K(1,3)-GGPEEGASLRHYYNWLTRQRY-NH2.C18DA-E-E-E-E-E-E-eLys(1,2)]”, the EC50 was 0.25 nM in experiment [1] (setting [3]) and 0.2 nM in experiment [2] (setting [5]).
“H-Y[Aib]EGTFTSDYSI[Aib]LEKQAQ[Aib]AFVEWLIK([εLys-γGlu-γGlu-γGlu-γGlu-γGlu-γGlu-C20 diacid])GGPSSGAS[Aib]RHYYNWLTRQ[NMeR]Y-NH2 [Compound 39, Y-Aib-E-G-T-F-T-S-D-Y-S-I-Aib-L-E-K-Q-A-Q-Aib-A-F-V-E-W-L-I-K(1,3)-G-G-P-S-S-G-A-S-Aib-R-H-Y-Y-N-W-L-T-R-Q-NMeR-Y-NH2.C20DA-gGlu-gGlu-gGlu-gGlu-gGlu-gGlu-eLys(1,2)]”: the EC50 came out at 0.06 nM in experiment [1] (setting [3]), 0.4 nM in experiment [1] (setting [4]), 0.09 nM in experiment [2] (setting [5]) and 0.82 nM in experiment [2] (setting [6]).
